“Also recorded” adds a separate entry of the source.
Columns and labels:
SGBS preadipocytes = assay: AdipoRed adipogenesis assay, SGBS; format: cell-based, human; conditions: 24 h; tesa 10/25/100 μM, tesa-NPY 100 μM; AdipoRed fluorescence, DMSO = 100%; n = 3 in quadruplicate
Procedure: 3T3-L1 or SGBS cells were seeded into 96-well plates and grown to complete confluency (set as day 0). On day 2 of confluence, the 3T3-L1 cells were differentiated by DMEM High Glucose Medium supplemented with 10% (v/v) not-heat inactivated FCS, 0.5 mM IBMX, 167 nM human insulin, and 1 μM dexamethasone (differentiation medium). On day 4, the medium was replaced by insulin medium (DMEM High Glucose Medium, 10% not-heat inactivated FCS, and 167 nM human insulin). On day 6, the medium was changed to standard culture medium and changed every other day until full differentiation was achieved (on day 8). The SGBS cells were differentiated as previously described. […] On day 4, the medium was replaced by 3FC medium (DMEM High Glucose Medium and Hams F12 (1:1 (v/v))) without FCS and supplemented with 0.01 mg human apo-transferrin, 20 nM human insulin, triiodo-L-thyronine, and 100 nM hydrocortisone. The medium was changed every second day until full differentiation was achieved (day 10). […]
(A, B) Cells were differentiated and stimulated according to the protocol depicted for 3T3-L1 (A) and for SGBS (B). […] (E,F) Expression of adipocyte-enriched genes in 3T3-L1 (E) or SGBS (F) adipocytes analyzed by qPCR. […] Statistical significances refer to DMSO-treated cells and were determined by one-way analysis of variance (ANOVA) followed by Dunnett's multiple comparison test, *≤0.05, **p ≤ 0.01, ***p ≤ 0.001.

[1] = Body weight change in db/db mice; format: in vivo; conditions: 2.5 μM/kg/day, 8 days, tesa oral, peptides i.p., n = 5
Procedure: (§1) All of the experiments were performed according to the animal ethical laws of the state Saxony, Germany, and were approved by the local animal ethics review board (Landesdirektion Sachsen, Leipzig, Germany). Female db/db mice 12–15 weeks of age were purchased from Taconic (Denmark) and housed in groups of 5 in temperature- and humidity-controlled facilities in a 12 h:12 h light–dark cycle and had free access to tap water and food (regular chow, Sniff, Soest, Germany). Three out of seven groups served as controls (N = 15, see Table 1). The 5 db/db mice were untreated and 10 db/db mice were vehicle treated either orally or intraperitoneally (i.p.). […]
All of the mice were monitored for 9 days during the treatment period. Body weight, food intake, and water uptake were recorded daily and body composition (lean body mass and whole body fat mass) was recorded at the beginning, middle, and end of the study in the conscious mice using an EchoMRI system (Echo Medical Systems, Houston, TX, USA). At the beginning and end of the treatment period, the HbA1c levels were determined from 5 μl of whole venous blood samples using an automated chemical analyzer at the Institute of Laboratory Medicine and Clinical Chemistry and beta-ketone using an automated glucose monitor (FreeStyle Precision H, Abbott GmbH, Ludwigshafen, Germany). […]

[2] = tested on: subcutaneous and epigonadal adipose tissue; assay: Adipose tissue histology and adipocyte size; format: in vivo; conditions: db/db mice, 2.5 μmol/kg/day, 8 days; H&E, epigonadal and subcutaneous AT
Procedure: All of the experiments were performed according to the animal ethical laws of the state Saxony, Germany, and were approved by the local animal ethics review board (Landesdirektion Sachsen, Leipzig, Germany). Female db/db mice 12–15 weeks of age were purchased from Taconic (Denmark) and housed in groups of 5 in temperature- and humidity-controlled facilities in a 12 h:12 h light–dark cycle and had free access to tap water and food (regular chow, Sniff, Soest, Germany). Three out of seven groups served as controls (N = 15, see Table 1). The 5 db/db mice were untreated and 10 db/db mice were vehicle treated either orally or intraperitoneally (i.p.). One additional group (n = 5) of lean C57BL/6NTac mice was used as a metabolically healthy control group. Groups 1 to 5 were treated daily with 2.5 μmol/kg body weight tesa, peptides or vehicle (1% (v/v) DMSO in PBS) either by gavage or intraperitoneal injection for 8 days according to Table 1. The control mice were gavaged with an equal volume of vehicle.

Serum adiponectin = format: in vivo; conditions: db/db mice, 2.5 μmol/kg/day, 8 days; ELISA; n = 5
Procedure: as §1, with “(i.p.). One additional group (n = 5) of lean C57BL/6NTac mice was used as a metabolically healthy control group.” for “(i.p.).”
Serum insulin (mouse insulin ELISA, Mercodia, Uppsala, Sweden), adiponectin (mouse adiponectin ELISA, AdipoGen, San Diego, CA, USA), leptin (mouse leptin ELISA, Crystal Chem, Downers Grove, IL, USA), and Mcp-1 (mouse/rat CCL2/JE/Mcp-1 Quantikine ELISA, R&D Systems, Minneapolis, MN, USA) levels were analyzed via ELISA according to the manufacturer's instructions. Serum concentrations of TG, FFA, and cholesterol were measured by an automatic chemical analyzer at the Institute of Laboratory Medicine and Clinical Chemistry.

[3] = volunteers, ref [111]; cited from earlier work
Text: Thus, the observed anti-diabetic effects are assumed to result from adipocyte-specific PPARγ-mediate ...

[4] = cited from earlier work
Text: The dual PPARα/γ agonist tesaglitazar (tesa), in contrast, contains a carboxyl function suitable for synthesis. […] The clinical investigation of tesa was discontinued in phase III because of safety concerns regarding ...

CCO[C@@H](Cc1ccc(OCCc2ccc(OS(C)(=O)=O)cc2)cc1)C(=O)O [tesa, tesaglitazar]
adipogenesis (triglyceride content), SGBS (SGBS preadipocytes): enhanced adipogenesis in both cell lines
body weight change, in words [1]: did not change significantly; also recorded: can prevent this weight loss
adipocyte size [2]: trend toward smaller adipocyte size
adiponectin, serum (Serum adiponectin): normalization of the plasma concentration
absorption after oral dosing [3]: rapidly and completely absorbed after oral dosing
insulin resistance ([4]; mice and humans, ref [41, 42, 43]): reduce insulin resistance in mice and humans
clinical safety ([4]; phase III, ref [16, 44]): discontinued in phase III because of safety concerns regarding renal dysfunction

Source: paper PMC6931124, “NPY1R-targeted peptide-mediated delivery of a dual PPARα/γ agonist to adipocytes enhances adipogenesis and prevents diabetes progression” (Molecular Metabolism, 2019)
